We go through 47 compounds from patent US8575197B2, “Pyrolinone derivative and pharmaceutical composition comprising the same” (Shionogi & Co., Ltd., priority 2008, dated 2013).

Structures are written as SMILES.

For orientation: IC50 means the concentration at which inhibition is half-maximal.

Sequence of human P2X3 receptor (P56373 whole entry): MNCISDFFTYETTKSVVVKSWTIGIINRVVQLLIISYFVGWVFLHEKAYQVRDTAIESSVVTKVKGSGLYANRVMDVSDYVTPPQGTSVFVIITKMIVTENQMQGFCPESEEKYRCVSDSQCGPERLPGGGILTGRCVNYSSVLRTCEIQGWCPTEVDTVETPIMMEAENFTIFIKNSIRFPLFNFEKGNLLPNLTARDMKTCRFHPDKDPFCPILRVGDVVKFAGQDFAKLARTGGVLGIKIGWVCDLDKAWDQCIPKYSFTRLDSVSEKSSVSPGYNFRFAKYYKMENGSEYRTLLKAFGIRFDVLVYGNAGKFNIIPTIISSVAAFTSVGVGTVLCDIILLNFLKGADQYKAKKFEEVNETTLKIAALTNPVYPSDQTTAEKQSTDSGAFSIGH

The assay has as its target human P2X3 receptor (Homo sapiens (Human), UniProt P56373). As to the kind of experiment: P2X3 receptor inhibition, ATP-evoked Fluo-3 calcium fluorescence (FDSS 3000). The format is cell-based. To be noted: C6BU-1 cell transfected with human P2X3 receptor gene; ATP-evoked Fluo-3 fluorescence. A digest of the protocol: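 C6BU-1 cells stably transfected with human P2X3, loaded with 4 μM Fluo-3-AM for 1 h at 37 °C in HEPES buffer pH 7.5 with probenecid. Compound added 5 min before 40 nM ATP solution; fluorescence followed 3 min. IC50 from ratio of peak post-ATP to baseline fluorescence.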
Consider `COCCOc1ncccc1C1C(C(=O)C2CCCC2)=C(O)C(=O)N1c1ccc(-c2noc(C)n2)cc1` (centres unmarked) [Compound I-523], for which the IC50 worked out at 351 nM.

Take `Cc1nc(-c2ccc(N3C(=O)C(O)=C(C(=O)C(C)C)C3c3cccnc3N3CCOCC3)cc2)no1` (centres unmarked) [Compound I-524]: the IC50 is 696 nM.

With `CC(C)C(=O)C1=C(O)C(=O)N(c2ccc(-c3ccsc3)cc2)C1c1cccnc1N1CCOCC1` (centres unmarked) [Compound I-525], the IC50 came to 18 nM.

As for `Cc1cc(-c2ccc(N3C(=O)C(O)=C(C(=O)C(C)C)C3c3ccccc3CC(=O)N3CCCC3)cc2)cs1` (centres unmarked) [Compound I-526], the IC50 was determined as 219 nM.

Consider `COCc1ccccc1C1C(C(=O)C(C)C)=C(O)C(=O)N1c1ccc(C2=CCCC2)cc1` (centres unmarked) [Compound I-527], for which the IC50 was 39 nM.

With `COCc1ccccc1C1C(C(=O)C(C)C)=C(O)C(=O)N1c1ccc(C2CCCC2)cc1` (centres unmarked) [Compound I-528], the IC50 came out at 70 nM.

`CCNC(=O)c1ncccc1C1C(C(=O)CC(C)C)=C(O)C(=O)N1c1ccc(-c2ccc(C)s2)cc1` (centres unmarked) [Compound I-530]: the IC50 turned out to be 237 nM.

As to `COc1ccccc1C1C(C(=O)C(C)C)=C(O)C(=O)N1c1ccc(-c2csnn2)cc1` (centres unmarked) [Compound I-531], the IC50 was determined as 286 nM.

Consider `COCCOc1ccccc1C1C(C(=O)C(C)C)=C(O)C(=O)N1c1ccc(-c2csnn2)cc1` (centres unmarked) [Compound I-532], for which the IC50 came out at 204 nM.

Take `CC(C)Oc1ccccc1C1C(C(=O)C(C)C)=C(O)C(=O)N1c1ccc(-c2csnn2)cc1` (centres unmarked) [Compound I-533]: the IC50 was 33 nM.

`CNC(=O)CCc1ccccc1C1C(C(=O)C(C)C)=C(O)C(=O)N1c1ccc(-c2ccc(C)o2)cc1` (centres unmarked) [Compound I-535]: the half-maximal inhibitory concentration (IC50) was determined as 49 nM.

`Cc1ccc(-c2ccc(N3C(=O)C(O)=C(C(=O)C(C)C)C3c3ccccc3CCC(N)=O)cc2)o1` (centres unmarked) [Compound I-536]: the IC50 was 32 nM.

On to `Cc1ccc(-c2ccc(N3C(=O)C(O)=C(C(=O)C(C)C)C3c3ccccc3CCC(=O)N(C)C)cc2)o1` (centres unmarked) [Compound I-537], for which the IC50 was 83 nM.

Turning to `Cc1ccc(-c2ccc(N3C(=O)C(O)=C(C(=O)C(C)C)C3c3ccccc3CCC(=O)NC(C)C)cc2)o1` (centres unmarked) [Compound I-538], the IC50 stood at 119 nM.

Regarding `Cc1nc(-c2ccc(N3C(=O)C(O)=C(C(=O)C(C)C)C3c3ccccc3COC(C)C)cc2)no1` (centres unmarked) [Compound I-539], the IC50 is 62 nM.

In the case of `CC(C)OCc1ccccc1C1C(C(=O)C(C)C)=C(O)C(=O)N1c1ccc(-c2ccon2)cc1` (centres unmarked) [Compound I-540], the IC50 is 496 nM.

Take `CC(C)OCc1ccccc1C1C(C(=O)C(C)C)=C(O)C(=O)N1c1ccc(-c2ccsc2)cc1` (centres unmarked) [Compound I-541]: the half-maximal inhibitory concentration (IC50) is 10 nM.

With `CCOCOc1ccccc1C1C(C(=O)C(C)C)=C(O)C(=O)N1c1ccc(-c2noc(C)n2)cc1` (centres unmarked) [Compound I-542], the IC50 was 58 nM.

As for `CCOCOc1ccccc1C1C(C(=O)C(C)C)=C(O)C(=O)N1c1ccc(-c2ccon2)cc1` (centres unmarked) [Compound I-543], the IC50 turned out to be 240 nM.

For `CCOCOc1ccccc1C1C(C(=O)C(C)C)=C(O)C(=O)N1c1ccc(-c2ccsc2)cc1` (centres unmarked) [Compound I-544], the IC50 amounted to 8 nM.

`CCOCOc1ccccc1C1C(C(=O)C(C)C)=C(O)C(=O)N1c1ccc(-c2nc(C)no2)cc1` (centres unmarked) [Compound I-545]: the IC50 stood at 142 nM.

Consider `Cc1cc(-c2ccc(N3C(=O)C(O)=C(C(=O)C(C)C)C3c3ccccc3C(=O)N3CCOCC3)cc2)cs1` (centres unmarked) [Compound I-546], for which the IC50 amounted to 395 nM.

For the compound `COCCN(C)C(=O)c1ccccc1C1C(C(=O)C(C)C)=C(O)C(=O)N1c1ccc(-c2csc(C)c2)cc1` (centres unmarked) [Compound I-547], the IC50 worked out at 217 nM.

Turning to `Cc1ccc(-c2ccc(N3C(=O)C(O)=C(C(=O)C(C)C)C3c3ccccc3S(C)(=O)=O)cc2)o1` (centres unmarked) [Compound I-548], the IC50 is 77 nM.

In the case of `Cc1ccc(-c2ccc(N3C(=O)C(O)=C(C(=O)C(C)C)C3c3ccccc3C(=O)N3CCOCC3)cc2)o1` (centres unmarked) [Compound I-549], the IC50 is 213 nM.

Regarding `COCCOc1ncccc1C1C(C(=O)CC(C)C)=C(O)C(=O)N1c1ccc(SC)cc1` (centres unmarked) [Compound I-550], the half-inhibitory concentration (IC50) is 254 nM.

Regarding `CC(C)C(=O)C1=C(O)C(=O)N(c2ccc(-c3ccsc3)cc2)C1c1ccccc1OCC1OCCO1` (centres unmarked) [Compound I-551], the IC50 is 5 nM.

In the case of `Cc1noc(-c2ccc(N3C(=O)C(O)=C(C(=O)C(C)C)C3c3ccccc3COC(C)C)cc2)n1` (centres unmarked) [Compound I-552], the half-inhibitory concentration (IC50) turned out to be 186 nM.

For the compound `COc1ccccc1C1C(C(=O)c2cc[nH]c2)=C(O)C(=O)N1c1ccc(-c2csc(C)c2)cc1` (centres unmarked) [Compound I-553], the IC50 was found to be 337 nM.

In the case of `Cc1nc(-c2ccc(N3C(=O)C(O)=C(C(=O)c4cc[nH]c4)C3C3CCCCC3)cc2)no1` (centres unmarked) [Compound I-555], the IC50 was determined as 579 nM.

Regarding `COC(=O)C(C)(C)CC(=O)C1=C(O)C(=O)N(c2ccc(-c3ccsc3)cc2)C1c1ccccc1OC` (centres unmarked) [Compound I-556], the IC50 was found to be 32 nM.

As to `COc1ccccc1C1C(C(=O)CC(C)(C)C(=O)O)=C(O)C(=O)N1c1ccc(-c2ccsc2)cc1` (centres unmarked) [Compound I-557], the IC50 worked out at 444 nM.

Regarding `CSc1ccccc1C1C(C(=O)C(C)C)=C(O)C(=O)N1c1ccc(-c2ccsc2)cc1` (centres unmarked) [Compound I-558], the IC50 came out at 8 nM.

For `CSc1ccccc1C1C(C(=O)C(C)C)=C(O)C(=O)N1c1ccc(-c2csc(C)c2)cc1` (centres unmarked) [Compound I-559], the IC50 amounted to 40 nM.

Turning to `COc1ccc(S(=O)(=O)C2=C(O)C(=O)N(c3ccc(-c4noc(C)n4)cc3)C2C2CCCCC2)cc1` (centres unmarked) [Compound I-560], the IC50 was found to be 275 nM.

Regarding `COCCOc1ccccc1C1C(S(=O)(=O)C(C)C)=C(O)C(=O)N1c1ccc(-c2ccsc2)cc1` (centres unmarked) [Compound I-563], the IC50 was determined as 42 nM.

As for `CC(C)C(=O)C1=C(O)C(=O)N(c2ccc(-c3ccsc3)cc2)C1c1cccnc1OCCCO` (centres unmarked) [Compound I-564], the IC50 came to 18 nM.

Turning to `COCCCOc1ncccc1C1C(C(=O)C(C)C)=C(O)C(=O)N1c1ccc(-c2ccsc2)cc1` (centres unmarked) [Compound I-565], the IC50 was determined as 13 nM.

As for `CC(C)C(=O)C1=C(O)C(=O)N(c2ccc(-c3ccoc3)cc2)C1c1cccnc1OCCCO` (centres unmarked) [Compound I-566], the IC50 worked out at 61 nM.

Turning to `COCCCOc1ncccc1C1C(C(=O)C(C)C)=C(O)C(=O)N1c1ccc(-c2ccoc2)cc1` (centres unmarked) [Compound I-567], the IC50 amounted to 57 nM.

Turning to `Cc1ccc(-c2ccc(N3C(=O)C(O)=C(C(=O)C(C)C)C3c3cccnc3OCCCO)cc2)s1` (centres unmarked) [Compound I-568], the IC50 was 66 nM.

As to `COCCCOc1ncccc1C1C(C(=O)C(C)C)=C(O)C(=O)N1c1ccc(-c2ccc(C)s2)cc1` (centres unmarked) [Compound I-569], the IC50 stood at 35 nM.

For `Cc1cc(-c2ccc(N3C(=O)C(O)=C(C(=O)C(C)C)C3c3cccnc3OCCCO)cc2)cs1` (centres unmarked) [Compound I-570], the IC50 was found to be 70 nM.

On to `COCCCOc1ncccc1C1C(C(=O)C(C)C)=C(O)C(=O)N1c1ccc(-c2csc(C)c2)cc1` (centres unmarked) [Compound I-571], for which the IC50 came to 60 nM.

Regarding `Cc1ccc(-c2ccc(N3C(=O)C(O)=C(C(=O)CC(C)C)C3c3cccnc3C(N)=O)cc2)s1` (centres unmarked) [Compound I-572], the IC50 was 171 nM.

As for `CNC(=O)c1ncccc1C1C(C(=O)CC(C)C)=C(O)C(=O)N1c1ccc(-c2ccc(C)s2)cc1` (centres unmarked) [Compound I-573], the IC50 worked out at 123 nM.

As to `Cc1ccc(-c2ccc(N3C(=O)C(O)=C(C(=O)CC(C)C)C3c3cccnc3C(=O)N(C)C)cc2)s1` (centres unmarked) [Compound I-574], the IC50 was determined as 280 nM.
